A short description of series [1]: Cation titration followed by absorbance or fluorescence excitation spectra: Ca²⁺ binding. As to conditions: 0.1 M tetramethylammonium chloride, 1-5 mM tris(hydroxymethyl)aminomethane, high pH, read-out: Dissociation constants (Kd) in mM for Ca²⁺. The protocol:
• Footnote a: For molecular structures, see Fig. 1. • Footnote b: Except where otherwise noted, these dissociation constants were measured with the chelator dissolved in 0.1 M tetramethylammonium chloride, at a pH held high enough with 1-5 mM tris(hydroxymethyl)aminomethane for protonation to be insignificant. The absorbance spectrum, or the fluorescence excitation spectrum for those compounds (2GG, 2NN, 2OO, 2PP, 3NN) with acronyms was measured as a function of the concentration of cation added as a solid or concentrated aqueous solution of the halide salt. No correction has been made for the changing ionic strength of the solution, which started from 0.1 M and increased, but the absorbances and fluorescence amplitudes were applied for dilution of the dye and any slight quenching due to high concentrations of Cl⁻. • Footnote c: These protonation constants were determined in 0.1 M tetramethylammonium chloride, 10 mM tris(hydroxymethyl)aminomethane, titrated with 5 M H₃PO₄ to successively lower pH values measured with a Radiometer PHM84 meter. […] The first number is the wavelength in nanometers, followed in parentheses by 10⁻³ x the corresponding extinction coefficient, M⁻¹cm⁻¹. […] Emission maxima are not corrected for the spectral sensitivity of the emission detection. Quantum efficiencies were measured (13) by comparing the integral of the corrected emission spectrum with the corresponding integral for a solution of quinine bisulfate in 1 N H₂SO₄ of matched absorbance at the excitation wavelength.
Affinities for other cations were usually measured by titrating aqueous solutions of the indicator with metal chlorides added either as solid or from concentrated stock solutions, taking care to minimize dilution and correct for it. A convenient way to mass-produce premeasured micromole to millimole aliquots of solid NaCl or KCl was to pipet saline solutions into polypropylene micro test tubes and evaporate the water in an oven. The standard ionic background was again 100 mM tetramethylammonium chloride, usually with a few mM of tris(hydroxymethyl)-aminomethane base to hold the pH high enough (pH 8-9) to insure that protonation was negligible. This convenient titration procedure had the slight disadvantage that the ionic strength was not constant, especially when large quantities of a salt had to be added due to weak affinities. […] When constant ionic strength was desired, the chelator was made up at identical concentrations in matched solutions of NaCl, KCl, or tetramethylammonium chloride, then these stocks were mixed in the desired proportions. All measurements were made at room temperature (22°, ±2° C).

A short description of series [2]: Effective Kd for Na⁺ against a K⁺ background. It is filed as binding. The procedure:
For comparison, Lehn's cryptand [2.2.1] (see ref. 5) is shown in the upper left hand corner. Below cryptand [2.2.1] are three generic types of crown ethers that have been prepared for use in the making some of the compounds of the present invention. To the right of the vertical dividing line are examples of some of the aromatic and heterocyclic substituents that can be attached to the nitrogens of the crown ethers. […] The lowest curve ([Na⁺] = 0) was obtained with 5 µM SBFI in 130 mM KCl, 10 mM MOPS, KOH to pH 7.05, approximately 135 mM total K⁺. The highest curve ([Na⁺] = 135 mM) was analogously recorded from 5 µM SBFI in 130 mM NaCl, 10 mM MOPS, NaOH to pH 7.05. […]
• Footnote a: For molecular structures, see Fig. 1. • Footnote b: Except where otherwise noted, these dissociation constants were measured with the chelator dissolved in 0.1 M tetramethylammonium chloride, at a pH held high enough with 1-5 mM tris(hydroxymethyl)aminomethane for protonation to be insignificant. The absorbance spectrum, or the fluorescence excitation spectrum for those compounds (2GG, 2NN, 2OO, 2PP, 3NN) with acronyms was measured as a function of the concentration of cation added as a solid or concentrated aqueous solution of the halide salt. […]

Series [3] is described as follows: Proton dissociation constants in 0.1 M tetramethylammonium chloride. As to conditions: 10 mM Tris titrated with 5 M H₃PO₄.
Experimental: • Footnote a: For molecular structures, see Fig. 1. • Footnote b: Except where otherwise noted, these dissociation constants were measured with the chelator dissolved in 0.1 M tetramethylammonium chloride, at a pH held high enough with 1-5 mM tris(hydroxymethyl)aminomethane for protonation to be insignificant. […] No correction has been made for the changing ionic strength of the solution, which started from 0.1 M and increased, but the absorbances and fluorescence amplitudes were applied for dilution of the dye and any slight quenching due to high concentrations of Cl⁻. • Footnote c: These protonation constants were determined in 0.1 M tetramethylammonium chloride, 10 mM tris(hydroxymethyl)aminomethane, titrated with 5 M H₃PO₄ to successively lower pH values measured with a Radiometer PHM84 meter.
Proton dissociation constants of the chelators were measured by spectrophotometry or spectrofluorometry of buffered solutions, containing either 100 mM tetramethylammonium chloride as inert supporting electrolyte, or 121.5 mM K⁺, 13.5 mM Na⁺, and 1 mM Mg²⁺ to simulate the cation environment of vertebrate cytoplasm (14). Traces of UV-absorbing impurities in the tetramethylammonium chloride (Alfa Inorganics) were removed by filtration through acid-­washed activated charcoal. The concentration of the tetramethylammonium chloride was then measured by chloride titration, and the absence of significant Na⁺ contamination was verified with a sodium-selective glass electrode (Microelectrodes Inc.). When the chelators contained two protonatable nitrogens, the curve of absorbance or fluorescence versus pH was analyzed by computerized least-squares fitting to the equations for two arbitrary proton equilibria (15), with the added assumption that the two protonations each caused the same change in extinction coefficient or fluorescence.
Series [4] can be described thus: Non-specific quenching of fluorescence by CsCl. Format: physicochemical. The procedure: Selectivities of SBFP and SBFI against other cations are also adequate (Table I). […] Ratioing therefore not only normalizes for amount of dye in the optical path but also improves the discrimination against pH changes. […] Dissociation constants for Mg²⁺ and Ca²⁺ are high enough (about 60 mM and 38 mM respectively) for cytosolic levels of those ions to have insignificant effect. Curiously, Ca²⁺ is unique in causing a large hypsochromic shift of the emission peak, to 432 nm. All the above-mentioned salts except tetramethylammonium seem to cause a slight non-specific quenching of SBFI at very high concentrations. For example, CsCl causes no spectral shift at all, but 100, 200, and 500 mM CsCl depress the fluorescence by 9, 14, and 21% from the metal-free level. This effect is not a heavy-atom effect of Cs, since large excesses of Li⁺, Na⁺, and K⁺ also slightly quench their SBFI complexes. It may represent weak quenching by Cl⁻, since acetate and fluoride gave much less of the effect.

The nature of series [5]: UV absorbance spectra without and with saturating cation. It is filed as physicochemical.

As usually defined, the pKa is the negative logarithm of the acid dissociation constant. A lower pKa goes with a group that gives up its proton readily. On to `COc1cc2cc(-c3ccc(C(=O)O)cc3C(=O)O)oc2cc1N1CCOCCOCCN(c2cc3oc(-c4ccc(C(=O)O)cc4C(=O)O)cc3cc2OC)CCOCC1` [Compound 2PP, N,N-bis-(2-(2,4-dicarboxyphenyl)-5-methoxybenzofuran-6-yl)-diaza[15]-crown-5], for which the Kd in series [1] (listed as 2PP (SBFI)) is 38 mM; in series [1] (listed as SBFI), about 38 mM; in series [2] (Na⁺-K⁺ mixtures, sum held constant at 135 mM, 1 mM Mg²⁺ present, pH 7.05, read-out: apparent dissociation constant for Na⁺), 17 to 19 mM; in series [2] ([Na⁺]+[K⁺] = 280 mM (cytoplasm of marine organisms), read-out: effective Kd for SBFI-Na⁺), 28 mM. In addition, the pKa worked out at 5.89 in series [3] (first value printed (highest pKa, 1st proton), listed as 2PP (SBFI)) and 5.19 in series [3] (second value (second protonation)). The entries for the “depression of fluorescence from the metal-free level” value in series [4] (100 mM CsCl), in series [4] (200 mM CsCl) and in series [4] (500 mM CsCl) were 9%, 14% and 21%, respectively. Besides, the “Absorbance maxima -Na⁺ (wavelength)” value in series [5] (100 mM tetramethylammonium chloride plus 1-5 mM Tris, no Na⁺) was 346 nanometers. Moreover, the “Absorbance maxima +Na⁺ (wavelength)” value in series [5] (enough NaCl added (0.2-1 M) to saturate the Na⁺ binding) came out at 334 nanometers. The molecule also came in with an Absorbance maxima -Na⁺ (extinction coefficient) in series [5] (number is 10⁻³ x the extinction coefficient, lower limits for most compounds, no Na⁺) of 42000 M⁻¹ cm⁻¹. The molecule also yielded an Absorbance maxima +Na⁺ (extinction coefficient) in series [5] (number is 10⁻³ x the extinction coefficient, lower limits, saturating NaCl (0.2-1 M)) of 47000 M⁻¹ cm⁻¹. For the same molecule, the extinction coefficients in series [5] (without to with Na⁺, in M-1·cm-1 (unit assumed)) is given as 42,000-47,000.

The record behind these values is patent EP0369733A2, “Fluorescent indicator dyes for alkali metal cations, their preparation and use” (THE REGENTS OF THE UNIVERSITY OF CALIFORNIA, priority 1988, dated 1990).
